Results published in PMC6112376, “Comprehensive Analyses and Prioritization of Tox21 10K Chemicals Affecting Mitochondrial Function by in-Depth Mechanistic Studies” (Environmental Health Perspectives, 2018).
Where two headings read alike, the source gives them in different places.

Columns and labels:
[1] = system: Caenorhabditis elegans (Bristol N2); experiment: C. elegans larval development and growth assay; settings: for effect on larval growth (in words): 0.5–100μM
HepG2 cells [2] = settings: cited from earlier work; for IC50: read-out: MMP assays IC50 (µM), qHTS-HepG2
HepG2 cells [3] = experiment: cells; settings: Homo sapiens; for Emax: HepG2, read-out: MMP assays efficacy (%) HepG2
HepG2 cells [4] = experiment: ROS-Glo hydrogen peroxide (ROS) assay; assay type: cell-based, human
rat primary hepatocytes [5] = system: rat primary hepatocytes
[6] = system: Caenorhabditis elegans strain PE255; experiment: In vivo C. elegans ATP status assay; settings: for effect on ATP content (in words): 0.5–100μM; for minimal effective concentration: Caenorhabditis elegans, read-out: LEC LUM: lowest effect concentration for luminescence, a measure of nematode ATP content
[7] = system: HeLa cells expressing YFP-Parkin; experiment: Parkin translocation assay; assay type: cell-based, human
HepG2 cells [8] = experiment: Intracellular ATP content (cell viability) assay; assay type: cell-based, human; settings: for IC50: Homo sapiens, HepG2, 40 h
hNSC = experiment: MMP assay in human neural stem cells (hNSC); assay type: cell-based; settings: Homo sapiens, Neural stem cell, 1 h, read-out: hNSC IC50 (MMP)
[9] = system: isolated rat liver mitochondria; experiment: Oxygen consumption, Clark-type oxygen electrode; assay type: biochemical
[10] = system: p53 (p53-bla HCT-116 cells); experiment: p53 β-lactamase reporter gene assay; assay type: cell-based, human; settings: 16 h incubation, mean±SD of three experiments
[11] = system: Nrf2/ARE (ARE-bla HepG2 cells); experiment: ARE β-lactamase reporter gene assay; assay type: cell-based, human; settings: Homo sapiens, HepG2; 16 h incubation; mean±SD of three experiments; read-out: ARE (HepG2) EC50
rat primary hepatocytes [12] = experiment: MMP assay in rat primary hepatocytes; settings: Rattus norvegicus, Hepatocyte
[13] = HepG2, 1 h, read-out: HepG2 IC50 Galactose (MMP)
[14] = HepG2, 1 h, read-out: HepG2 IC50 Glucose (MMP)
[15] = 1 h, read-out: Rat hepatocytes IC50 (MMP)

O=C(Nc1ccc(Cl)cc1)Nc1ccc(Cl)c(Cl)c1 [Triclocarban]
EXT: mean difference in nematode size relative to plate controls ([1]; 0.05 µM): 0.05115 | EXT: mean difference in nematode size relative to plate controls ([1]; 0.1 µM): -0.1287 | EXT: mean difference in nematode size relative to plate controls ([1]; 0.5 µM): 0.279 | larval growth effect at 0.5μM ([1]; 0.5 µM): severe larval growth arrest | EXT: mean difference in nematode size relative to plate controls ([1]; 1 µM): 1.127 | EXT: mean difference in nematode size relative to plate controls ([1]; 5 µM): 1.268 | EXT: mean difference in nematode size relative to plate controls ([1]; 10 µM): 1.264 | EXT: mean difference in nematode size relative to plate controls ([1]; 25 µM): 1.322 | EXT: mean difference in nematode size relative to plate controls ([1]; 50 µM): 1.038 | EXT: mean difference in nematode size relative to plate controls ([1]; 75 µM): 0.8579 | EXT: mean difference in nematode size relative to plate controls ([1]; 100 µM): 0.6913 | effect on larval growth (in words) [1]: inhibited | minimal effective concentration ([1]; Caenorhabditis elegans, read-out: LEC EXT: lowest effect concentration for extinction, a measure of nematode size): 0.5 µM | MMP assays efficacy (%) qHTS-HepG2 (HepG2 cells [2]): -119±8% | IC50 (HepG2 cells [2]): 0.14 ± 0.05 µM | IC50 (HepG2 cells [3]; [13]): 1.36 µM | IC50 (HepG2 cells [3]; [14]): 0.93 µM | IC50 (HepG2 cells [3]; HepG2, read-out: IC50 in HepG2 cells (MMP, tier-one retest)): 0.17 µM | Emax (HepG2 cells [3]): 102% | EC50 (HepG2 cells [4]; Homo sapiens, HepG2, 2 h, read-out: ROS (HepG2) EC50): 31.8 µM | MMP assays efficacy (%) Rat Hepatocytes (rat primary hepatocytes [5]): -113±53% | Rat hepatocytes (efficacy) (MMP) (rat primary hepatocytes [5]): 1.77±0.60 ( −73.7±3.11 ) % | LUM: mean difference in luminescence (ATP content) relative to plate controls ([6]; 0.05 µM): -0.00831 | LUM: mean difference in luminescence (ATP content) relative to plate controls ([6]; 0.1 µM): 0.1123 | LUM: mean difference in luminescence (ATP content) relative to plate controls ([6]; 0.5 µM): 0.4779 | LUM: mean difference in luminescence (ATP content) relative to plate controls ([6]; 1 µM): 2.3316 | LUM: mean difference in luminescence (ATP content) relative to plate controls ([6]; 5 µM): 2.049 | LUM: mean difference in luminescence (ATP content) relative to plate controls ([6]; 10 µM): 3.074 | LUM: mean difference in luminescence (ATP content) relative to plate controls ([6]; 25 µM): 3.397 | LUM: mean difference in luminescence (ATP content) relative to plate controls ([6]; 50 µM): 3.34 | LUM: mean difference in luminescence (ATP content) relative to plate controls ([6]; 75 µM): 3.2375 | LUM: mean difference in luminescence (ATP content) relative to plate controls ([6]; 100 µM): 2.494 | effect on ATP content (in words) [6]: inhibited | minimal effective concentration [6]: 0.5 µM | Parkin recruitment [7]: Active | IC50 (HepG2 cells [8]; read-out: ATP (HepG2, galactose) IC50): 15.8 µM | IC50 (HepG2 cells [8]; read-out: ATP (HepG2, glucose) IC50): 19.1 µM | IC50 (hNSC): 0.43 µM | Potential Mechanism [9]: Uncoupler | effect on mitochondrial respiration (in words) [9]: effects similar to those of FCCP | I-ADP, % of control (O2 consumption rate) ([9]; 0.032 µM): 107 (58.8) % of control | I-sub, % of control (O2 consumption rate) ([9]; 0.032 µM): 115 (15.1) % of control | II-ADP, % of control (O2 consumption rate) ([9]; 0.032 µM): 93 (82.1) % of control | II-sub, % of control (O2 consumption rate) ([9]; 0.032 µM): 93 (22.8) % of control | I-ADP, % of control (O2 consumption rate) ([9]; 0.16 µM): 96 (52.6) % of control | I-sub, % of control (O2 consumption rate) ([9]; 0.16 µM): 118 (15.5) % of control | II-ADP, % of control (O2 consumption rate) ([9]; 0.16 µM): 104 (91.7) % of control | II-sub, % of control (O2 consumption rate) ([9]; 0.16 µM): 114 (28.1) % of control | I-ADP, % of control (O2 consumption rate) ([9]; 0.8 µM): 103 (56.5) % of control | I-sub, % of control (O2 consumption rate) ([9]; 0.8 µM): 153 (20.1) % of control | II-ADP, % of control (O2 consumption rate) ([9]; 0.8 µM): 99 (87.1) % of control | II-sub, % of control (O2 consumption rate) ([9]; 0.8 µM): 128 (31.4) % of control | I-ADP, % of control (O2 consumption rate) ([9]; 20 µM): 143 (78.2) % of control | I-sub, % of control (O2 consumption rate) ([9]; 20 µM): 631 (82.6) % of control | II-ADP, % of control (O2 consumption rate) ([9]; 20 µM): 95 (84.1) % of control | II-sub, % of control (O2 consumption rate) ([9]; 20 µM): 290 (71.4) % of control | EC50 ([10]; Homo sapiens): 5.33 ± 2.02 µM | EC50 [11]: 6.68 µM | IC50 (rat primary hepatocytes [12]; 1 h, read-out: IC50 in rat primary hepatocytes (MMP, tier-one retest)): 0.17 µM | IC50 (rat primary hepatocytes [12]; [15]): 1.77 µM

O=C(Nc1ccccc1)Nc1cnns1 [Thidiazuron]
EXT: mean difference in nematode size relative to plate controls ([1]; 0.5 µM): 0.1764 | EXT: mean difference in nematode size relative to plate controls ([1]; 1 µM): 0.07124 | EXT: mean difference in nematode size relative to plate controls ([1]; 5 µM): 0.08978 | EXT: mean difference in nematode size relative to plate controls ([1]; 10 µM): 0.07446 | EXT: mean difference in nematode size relative to plate controls ([1]; 25 µM): 0.09242 | EXT: mean difference in nematode size relative to plate controls ([1]; 50 µM): 0.2069 | EXT: mean difference in nematode size relative to plate controls ([1]; 75 µM): 0.07987 | effect on larval growth (in words) [1]: did not affect growth | MMP assays efficacy (%) qHTS-HepG2 (HepG2 cells [2]): -126±9% | IC50 (HepG2 cells [2]): 3.43 ± 0.73 µM | IC50 (HepG2 cells [3]; [13]): 14.6 µM | IC50 (HepG2 cells [3]; [14]): 12 µM | IC50 (HepG2 cells [3]; HepG2, read-out: MMP assays IC50 (µM) HepG2): 6.31 µM | Emax (HepG2 cells [3]): 104% | ROS (HepG2) EC50 (HepG2 cells [4]): Inactive | MMP assays efficacy (%) Rat Hepatocytes (rat primary hepatocytes [5]): -136±46% | Rat hepatocytes (efficacy) (MMP) (rat primary hepatocytes [5]): 14.7±2.52 ( −98.5±15.2 ) % | LUM: mean difference in luminescence (ATP content) relative to plate controls ([6]; 0.5 µM): 0.0432 | LUM: mean difference in luminescence (ATP content) relative to plate controls ([6]; 1 µM): 0.1041 | LUM: mean difference in luminescence (ATP content) relative to plate controls ([6]; 5 µM): 0.03776 | LUM: mean difference in luminescence (ATP content) relative to plate controls ([6]; 10 µM): 0.1711 | LUM: mean difference in luminescence (ATP content) relative to plate controls ([6]; 25 µM): 0.3608 | LUM: mean difference in luminescence (ATP content) relative to plate controls ([6]; 50 µM): 0.588 | LUM: mean difference in luminescence (ATP content) relative to plate controls ([6]; 75 µM): 0.6504 | LUM: mean difference in luminescence (ATP content) relative to plate controls ([6]; 100 µM): 0.4761 | effect on ATP content (in words) [6]: statistically significant decreases in ATP content | minimal effective concentration [6]: 50 µM | Parkin recruitment [7]: Inactive | ATP (HepG2, galactose) IC50 (HepG2 cells [8]): Inactive | ATP (HepG2, glucose) IC50 (HepG2 cells [8]): Inactive | IC50 (hNSC): 8.39 µM | Potential Mechanism [9]: Uncoupler | I-ADP, % of control (O2 consumption rate) ([9]; 0.16 µM): 93 (51.1) % of control | I-sub, % of control (O2 consumption rate) ([9]; 0.16 µM): 104 (13.6) % of control | II-ADP, % of control (O2 consumption rate) ([9]; 0.16 µM): 91 (80.1) % of control | II-sub, % of control (O2 consumption rate) ([9]; 0.16 µM): 100 (24.5) % of control | I-ADP, % of control (O2 consumption rate) ([9]; 0.8 µM): 74 (40.3) % of control | I-sub, % of control (O2 consumption rate) ([9]; 0.8 µM): 95 (12.4) % of control | II-ADP, % of control (O2 consumption rate) ([9]; 0.8 µM): 93 (82.2) % of control | II-sub, % of control (O2 consumption rate) ([9]; 0.8 µM): 106 (26.1) % of control | I-ADP, % of control (O2 consumption rate) ([9]; 4 µM): 87 (47.5) % of control | I-sub, % of control (O2 consumption rate) ([9]; 4 µM): 134 (17.5) % of control | II-ADP, % of control (O2 consumption rate) ([9]; 4 µM): 95 (83.6) % of control | II-sub, % of control (O2 consumption rate) ([9]; 4 µM): 119 (29.3) % of control | I-ADP, % of control (O2 consumption rate) ([9]; 20 µM): 99 (54.4) % of control | I-sub, % of control (O2 consumption rate) ([9]; 20 µM): 311 (40.8) % of control | II-ADP, % of control (O2 consumption rate) ([9]; 20 µM): 104 (92.1) % of control | II-sub, % of control (O2 consumption rate) ([9]; 20 µM): 269 (66.2) % of control | p53 (HCT-116) EC50 [10]: Inactive | EC50 [11]: 27.3 ± 9.74 µM | IC50 (rat primary hepatocytes [12]; [15]): 14.7 µM | IC50 (rat primary hepatocytes [12]; read-out: MMP assays IC50 (µM) Rat Hepatocytes): 4.56 ± 2.78 µM
